The record followed here is patent publication US10968215B2 (SHANGHAI HAIHE PHARMACEUTICAL CO., LTD., priority 2016, dated 2021).

pIC50: −log10 of the molar value. Where two headings read alike, the source gives them in different places.

The target of assay [1] is PRC2 complex (EZH2 Y641F/EED/SUZ12/RbAp48/AEBP2) (Homo sapiens (Human), UniProt Q15910, Y641F). Description: Activity of a compound to PRC2 complex (EZH2 Y641F), HTRF. On the technique in general: Time-resolved FRET reads energy transfer from a long-lived donor to a nearby acceptor.
Protocol: Determination of the Activity of a Compound to PRC2 Complex (EZH2Y641F):
Detection Method: Homogeneous Time-Resolved Fluorescence (HTRF)
Reaction was conducted in darkness at room temperature for 4 h. […] The IC50 values of the compounds were calculated using SoftMax Pro 5.4.1 software.
In assay [2] the target is PRC2 complex (EZH2/EED/SUZ12/RbAp48/AEBP2) (Homo sapiens (Human), UniProt Q15910). Description: Activity of a compound to PRC2 complex (EZH2 wild type), ELISA. The conditions noted are these: class symbols. The class given is biochemical. For orientation: ELISA stands for enzyme-linked immunosorbent assay.
Description: Determination of the Activity of a Compound to PRC2 Complex (EZH2 Wild Type):
Detection Method: Enzyme-Linked Immunosorbent Assay (ELISA)
MATERIALS: The PRC2 complex (EZH2/EED/SUZ12/RbAp48/AEBP2) histone methyltransferase was purchased from BPS; the substrate Biotin H3 (21-44) me0 was produced by AnaSpec; SAM was purchased from Sigma, which is GL Biochem product; methyl donor SAM was purchased from Sigma-aldrich; H3K27me3 antibody was purchased from BPS.
Experimental method: avdin of a final concentration of 100 nM was used to coat 96-well plate at 10 μL/well, placed in a wet box and shaken overnight, and then 100 μL 3% BSA per well was added and blocked for 1 h at room temperature. PRC2 complex (EZH2/EED/SUZ12/RbAp48/AEBP2), H3 (21-44) me0 substrate, methyl donor SAM and compound were added into each well of the blocked 96-well plate. The total reaction system was 100 μL, placed in a wet box and allowed to react for 1 h on shaker at room temperature. The plate was washed with TBS-T [20 mM Tris-HCl (pH 7.2-7.4, room temperature), 150 mM NaCl, 0.1% (v/v) Tween-20] for 3 times, blocked with 3% BSA for 10 min, and anti-H3K27me3 antibody was added and incubated for 1 h in a wet box on shaker at room temperature. The plate was washed again with TBS-T for 3 times, and blocked with 3% BSA per well for 10 min. Horseradish peroxidase-labeled secondary antibody was added and reacted in a wet box at room temperature for 1 h, and finally, washed with TBS-T for 3 times. 2 mg/ml OPD color developing solution (1004/well) was added for coloring, and the reaction was stopped with 2M H2SO4 (50 μL/well). The plate was read by a plate reader at 490 nm and IC50 of the compound was calculated using SoftMax Pro 5.4.1 software.
Where [3] appears, read: read-out: IC50 (EZH2_Y641F), EZH2 Y641F PRC2 complex, HTRF, class symbols.

Chain of PRC2 complex (EZH2 Y641F/EED/SUZ12/RbAp48/AEBP2) (Q15910 whole entry Y641F): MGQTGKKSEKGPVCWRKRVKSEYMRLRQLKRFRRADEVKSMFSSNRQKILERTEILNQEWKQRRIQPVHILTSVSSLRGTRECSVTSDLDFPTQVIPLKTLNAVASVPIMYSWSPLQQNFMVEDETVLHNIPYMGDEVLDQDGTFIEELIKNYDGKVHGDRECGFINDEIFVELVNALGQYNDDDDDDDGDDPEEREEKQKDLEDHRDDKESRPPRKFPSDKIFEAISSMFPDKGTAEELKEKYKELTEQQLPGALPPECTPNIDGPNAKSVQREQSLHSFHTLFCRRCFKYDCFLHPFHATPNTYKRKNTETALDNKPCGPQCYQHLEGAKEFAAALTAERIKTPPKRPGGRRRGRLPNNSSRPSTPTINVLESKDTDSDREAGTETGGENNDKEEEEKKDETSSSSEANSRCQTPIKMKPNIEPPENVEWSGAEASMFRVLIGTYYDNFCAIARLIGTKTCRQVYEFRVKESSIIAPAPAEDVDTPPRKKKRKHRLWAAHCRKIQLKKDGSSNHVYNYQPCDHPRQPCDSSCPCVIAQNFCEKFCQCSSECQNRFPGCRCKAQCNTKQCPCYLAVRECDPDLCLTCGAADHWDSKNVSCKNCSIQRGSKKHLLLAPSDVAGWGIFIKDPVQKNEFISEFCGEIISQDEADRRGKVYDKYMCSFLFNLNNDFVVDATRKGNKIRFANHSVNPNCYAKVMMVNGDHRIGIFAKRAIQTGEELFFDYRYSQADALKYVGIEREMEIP
Chain of PRC2 complex (EZH2 Y641F/EED/SUZ12/RbAp48/AEBP2) (O75530 whole entry partner): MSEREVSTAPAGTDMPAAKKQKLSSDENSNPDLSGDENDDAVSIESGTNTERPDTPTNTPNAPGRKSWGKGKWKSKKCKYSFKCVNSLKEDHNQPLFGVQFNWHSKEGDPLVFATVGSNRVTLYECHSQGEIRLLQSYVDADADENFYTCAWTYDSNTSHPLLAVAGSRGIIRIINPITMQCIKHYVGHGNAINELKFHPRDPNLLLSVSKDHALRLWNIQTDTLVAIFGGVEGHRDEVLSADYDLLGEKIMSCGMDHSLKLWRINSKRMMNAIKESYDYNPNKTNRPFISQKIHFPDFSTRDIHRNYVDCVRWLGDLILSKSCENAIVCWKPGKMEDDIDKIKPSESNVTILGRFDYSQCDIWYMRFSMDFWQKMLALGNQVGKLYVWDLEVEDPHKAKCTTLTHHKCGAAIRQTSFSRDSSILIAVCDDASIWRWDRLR
Chain of PRC2 complex (EZH2 Y641F/EED/SUZ12/RbAp48/AEBP2) (Q15022 whole entry partner): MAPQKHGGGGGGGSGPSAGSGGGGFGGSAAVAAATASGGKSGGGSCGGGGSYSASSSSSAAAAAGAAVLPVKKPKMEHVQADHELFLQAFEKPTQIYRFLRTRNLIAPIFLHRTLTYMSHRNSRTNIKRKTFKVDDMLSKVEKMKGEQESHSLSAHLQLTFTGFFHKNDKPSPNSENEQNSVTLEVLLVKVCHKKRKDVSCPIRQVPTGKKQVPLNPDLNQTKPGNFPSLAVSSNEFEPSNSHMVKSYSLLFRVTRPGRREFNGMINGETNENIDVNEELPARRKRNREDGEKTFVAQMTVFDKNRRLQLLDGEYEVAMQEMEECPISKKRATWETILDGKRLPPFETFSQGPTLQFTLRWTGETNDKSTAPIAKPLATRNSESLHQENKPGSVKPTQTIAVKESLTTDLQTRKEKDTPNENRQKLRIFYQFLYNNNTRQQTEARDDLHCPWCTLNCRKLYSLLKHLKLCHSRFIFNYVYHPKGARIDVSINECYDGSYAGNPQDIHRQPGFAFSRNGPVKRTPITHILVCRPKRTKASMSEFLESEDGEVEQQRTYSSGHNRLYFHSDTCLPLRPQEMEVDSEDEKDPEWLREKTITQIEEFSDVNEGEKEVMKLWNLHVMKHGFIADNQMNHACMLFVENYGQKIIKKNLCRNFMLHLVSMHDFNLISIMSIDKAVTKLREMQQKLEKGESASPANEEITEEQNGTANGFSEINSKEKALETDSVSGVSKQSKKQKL
Chain of PRC2 complex (EZH2 Y641F/EED/SUZ12/RbAp48/AEBP2) (Q09028 whole entry partner): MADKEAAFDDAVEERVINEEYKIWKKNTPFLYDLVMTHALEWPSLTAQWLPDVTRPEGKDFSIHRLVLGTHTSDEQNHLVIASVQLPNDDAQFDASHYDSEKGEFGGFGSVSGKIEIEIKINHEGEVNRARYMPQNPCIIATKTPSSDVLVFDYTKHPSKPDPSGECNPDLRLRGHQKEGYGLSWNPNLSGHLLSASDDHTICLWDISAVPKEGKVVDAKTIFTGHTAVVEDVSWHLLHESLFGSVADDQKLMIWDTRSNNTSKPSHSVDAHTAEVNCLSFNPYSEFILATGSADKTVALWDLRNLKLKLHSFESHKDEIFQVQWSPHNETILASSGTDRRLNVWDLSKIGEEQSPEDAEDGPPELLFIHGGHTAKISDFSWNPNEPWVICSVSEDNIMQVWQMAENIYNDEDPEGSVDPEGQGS
Chain of PRC2 complex (EZH2 Y641F/EED/SUZ12/RbAp48/AEBP2) (Q6ZN18 whole entry partner): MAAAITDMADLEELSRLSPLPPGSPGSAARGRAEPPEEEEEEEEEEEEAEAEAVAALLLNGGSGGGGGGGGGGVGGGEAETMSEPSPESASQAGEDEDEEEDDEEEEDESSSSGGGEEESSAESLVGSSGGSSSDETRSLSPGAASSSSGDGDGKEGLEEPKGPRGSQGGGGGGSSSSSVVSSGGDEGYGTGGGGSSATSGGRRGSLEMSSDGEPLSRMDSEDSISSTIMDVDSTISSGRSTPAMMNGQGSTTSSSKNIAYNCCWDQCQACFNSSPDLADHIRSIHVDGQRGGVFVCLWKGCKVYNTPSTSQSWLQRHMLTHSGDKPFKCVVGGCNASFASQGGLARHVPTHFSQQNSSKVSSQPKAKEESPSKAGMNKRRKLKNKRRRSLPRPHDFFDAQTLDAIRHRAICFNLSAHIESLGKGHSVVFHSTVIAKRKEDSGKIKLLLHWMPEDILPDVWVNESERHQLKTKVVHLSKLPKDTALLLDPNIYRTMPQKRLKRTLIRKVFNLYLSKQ
Chain of PRC2 complex (EZH2/EED/SUZ12/RbAp48/AEBP2) (Q15910 whole entry): as the sequence (Q15910 whole entry Y641F) above, with F641Y counted along it
Chain of PRC2 complex (EZH2/EED/SUZ12/RbAp48/AEBP2) (O75530 whole entry partner): as the sequence (O75530 whole entry partner) above
Chain of PRC2 complex (EZH2/EED/SUZ12/RbAp48/AEBP2) (Q15022 whole entry partner): as the sequence (Q15022 whole entry partner) above
Chain of PRC2 complex (EZH2/EED/SUZ12/RbAp48/AEBP2) (Q09028 whole entry partner): as the sequence (Q09028 whole entry partner) above
Chain of PRC2 complex (EZH2/EED/SUZ12/RbAp48/AEBP2) (Q6ZN18 whole entry partner): as the sequence (Q6ZN18 whole entry partner) above

`Cc1cc(C)c(CNC(=O)c2cc3c(-c4ccc(N)nc4)ccn3c([C@H](C)N3CCN(CC(F)(F)F)CC3)c2C)c(=O)[nH]1` (single isomer, unassigned) [Compound 159, (S)-1-(6-aminopyridin-3-yl)-N-((4,6-dimethyl-2-oxo-1,2-dihydropyridin-3-yl)methyl)-6-methyl-5-(1-(4-(2,2,2-trifluoroethyl)piperazin-1-yl)ethyl)indolizine-7-carboxamide or (R) 1-(6-aminopyridin-3-yl)-N-((4,6-dimethyl-2-oxo-1,2-dihydropyridin-3-yl)methyl)-6-methyl-5-(1-(4-(2,2,2-trifluoroethyl)piperazin-1-yl)ethyl)indolizine-7-carboxamide]: the pIC50 in assay [1] (setting [3]) and in assay [2] was > 7.00 throughout.

`Cc1cc(C)c(CNC(=O)c2cc3c(-c4ccc(N)nc4)ccn3c(C(C)N3CCN(CC(F)(F)F)CC3)c2C)c(=O)[nH]1` (stereo not drawn) [Compound 158, 1-(6-aminopyridin-3-yl)-N-((4,6-dimethyl-2-oxo-1,2-dihydropyridin-3-yl)methyl)-6-methyl-5-(1-(4-(2,2,2-trifluoroethyl)piperazin-1-yl)ethyl)indolizine-7-carboxamide]: the pIC50 in assay [1] and in assay [2] was > 7.00 throughout.

Consider `C#CCOC(C)c1c(C)c(C(=O)NCc2c(C)cc(C)[nH]c2=O)cc2cccn12` (stereo not drawn) [Example 4, N-((4,6-dimethyl-2-oxo-1,2-dihydropyridin-3-yl)methyl)-6-methyl-5-(1-(prop-2-yn-1-yloxy)ethyl)indolizine-7-carboxamide], for which the pIC50 in assay [1] (setting [3]) and in assay [2] was 6.00 to 7.00 in each case.

Consider `Cc1cc(C)c(CNC(=O)c2cc3cccn3c(C(C)OCc3ccc(F)cc3)c2C)c(=O)[nH]1` (stereo not drawn) [Example 10], for which the pIC50 in assay [1] (setting [3]) and in assay [2] was 6.00 to 7.00 throughout.

As for `Cc1cc(C)c(CNC(=O)c2cc3cccn3c(C(C)OCc3ccccc3F)c2C)c(=O)[nH]1` (stereo not drawn) [Example 11], the pIC50 in assay [1] (setting [3]) and in assay [2] was 6.00 to 7.00 in each case.

Take `Cc1cc(C)c(CNC(=O)c2cc3cccn3c(C(C)OCc3cccc(F)c3)c2C)c(=O)[nH]1` (stereo not drawn) [Example 12]: the pIC50 in assay [1] (setting [3]) and in assay [2] was 6.00 to 7.00 in each case.

As to `Cc1cc(C)c(CNC(=O)c2cc3cccn3c(C(C)OCc3c(F)cccc3F)c2C)c(=O)[nH]1` (stereo not drawn) [Example 13], the pIC50 in assay [1] (setting [3]) and in assay [2] was 6.00 to 7.00 each time.

Consider `COc1cccc(COC(C)c2c(C)c(C(=O)NCc3c(C)cc(C)[nH]c3=O)cc3cccn23)c1` (stereo not drawn) [Example 14, N-((4,6-dimethyl-2-oxo-1,2-dihydropyridin-3-yl)methyl)-5-(1-((3-methoxybenzyl)oxy)ethyl)-6-methylindolizine-7-carboxamide], for which the pIC50 in assay [1] (setting [3]) and in assay [2] was 6.00 to 7.00 in each case.

On to `Cc1cc(C)c(CNC(=O)c2cc3cccn3c(C(C)OCc3nccs3)c2C)c(=O)[nH]1` (stereo not drawn) [Example 18, N-((4,6-dimethyl-2-oxo-1,2-dihydropyridin-3-yl)methyl)-6-methyl-5-(1-(thiazole-2-ylmethoxy)ethyl)indolizine-7-carboxamide], for which the pIC50 in assay [1] (setting [3]) was > 7.00; in assay [2], 6.00 to 7.00.

`Cc1cc(C)c(CNC(=O)c2cc3cccn3c(C(C)OCc3ccsc3)c2C)c(=O)[nH]1` (stereo not drawn) [Example 19, N-((4,6-dimethyl-2-oxo-1,2-dihydropyridin-3-yl)methyl)-6-methyl-5-(1-(thiophene-3-ylmethoxy)ethyl)indolizine-7-carboxamide]: the negative-log IC50 (pIC50) in assay [1] (setting [3]) and in assay [2] was 6.00 to 7.00 throughout.

`Cc1cc(C)c(CNC(=O)c2cc3cccn3c(C(C)OCc3ccn(C)n3)c2C)c(=O)[nH]1` (stereo not drawn) [Example 20]: the pIC50 in assay [1] (setting [3]) and in assay [2] was 6.00 to 7.00 throughout.

For `Cc1cc(C)c(CNC(=O)c2cc3cccn3c(C(C)c3ccccc3)c2C)c(=O)[nH]1` (stereo not drawn) [Example 25, N-((4,6-dimethyl-2-oxo-1,2-dihydropyridin-3-yl)methyl)-6-methyl-5-(1-phenylethyl)indolizine-7-carboxamide], the pIC50 in assay [1] (setting [3]) was 6.00 to 7.00; in assay [2], > 7.00.

`Cc1cc(C)c(CNC(=O)c2cc3cccn3c(N(C)C3CCOCC3)c2C)c(=O)[nH]1` [Example 55, N-((4,6-dimethyl-2-oxo-1,2-dihydropyridin-3-yl)methyl)-6-methyl-5-(methyl(tetrahydro-2H-pyran-4-yl)amino)indolizine-7-carboxamide]: the pIC50 in assay [1] (setting [3]) and in assay [2] was 6.00 to 7.00 throughout.

As for `Cc1cc(C)c(CNC(=O)c2cc3cc(Br)cn3c(N(C)C3CCOCC3)c2C)c(=O)[nH]1` [Example 57], the pIC50 in assay [2] is > 7.00.

On to “N-((4,6-dimethyl-2-oxo-1,2-dihydropyridin-3-yl)methyl)-2-(4-((dimethylamino)methyl)phen yl))-6-methyl-5-(1-morpholinoethyl)indolizine-7-carboxamide [Example 75]”, for which the pIC50 in assay [1] (setting [3]) is 6.00 to 7.00.

On to “N-((4,6-dimethyl-2-oxo-1,2-dihydropyridin-3-yl)methyl)-6-methyl-5-(1-morpholinylethyl)-2-(1-ethyl-1H-pyrazole)indolizine-7-carboxamide [Example 113]”, for which the pIC50 in assay [1] (setting [3]) is > 7.00.

Regarding “N-((4-methoxy-6-methyl-2-oxo-1,2-dihydropyridin-3-yl)methyl)-6-methyl-1-(2-methylpyridin-3-yl)-5-(1-(4-(2,2,2-trifluoroethyl)piperazin-1-yl)ethyl)indolizine-7-carboxamide [Compound 166]”, in assay [1] (setting [3]), the pIC50 was > 7.00.

In general, pIC50 refers to −log10 of the IC50, conventionally taken in molar units.
